Experimental data taken from patent publication US12496353B2, “Synergistic effects between auristatin-based antibody drug conjugates and inhibitors of the PI3K-AKT mTOR pathway” (SEAGEN INC., priority 2010, dated 2025).
Non-standard residues stand in square brackets, D forms with d. Residues, ends and D or L forms follow the SMILES beside them. *: point of attachment. Dolaproine = CO[C@@H]([C@@H]1CCCN1)[C@@H](C)C(=O)O; Dil = CC[C@H](C)[C@H](NC)[C@@H](CC(=O)O)OC; X1 = C[C@@H](N*)[C@@H](O)c1ccccc1; NMeV = CN[C@H](C(=O)O)C(C)C

Assays:
[1] = system: 786-O cells; assay: In vitro combination cytotoxicity (Cell Titer Glo, Chou-Talalay CI), 786-O; format: cell-based; settings: for interaction with the rapalogs temsirolimus, sirolimus, and everolimus / cytotoxicity of the drug alone: 786-O cell line; for interaction with the rapalogs temsirolimus, sirolimus, and everolimus: FIG. 2; for cytotoxicity of the drug alone: single drug; for effect on the cytotoxicity of h1F6-mcF: RCC cell lines (786-O and Caki-2 named in the sentence before)
Method: (§1) 786-O cells were cultured in Roswell Park Memorial Institute medium (RPMI) 1640+10% fetal bovine serum (FBS). Caki-1 cells were cultured in McCoy's 5A medium+10% FBS. Caki-2 cells were cultured in McCoy's 5A medium+2% FBS. 786-O, Caki-1, and Caki-2 cells (renal cell carcinoma cell lines) were all cultured at 37° C. with 5% CO2. L540cy cells were cultured in RPMI 1640+20% FBS. L428 cells were cultured in RPMI 1640+10% FBS. L540cy and L428 cell lines are Hodgkin lymphoma cell lines. Karpas-299 cells were cultured in RPMI 1640+10% FBS. The Karpas-299 cell line is an anaplastic large cell lymphoma cell (ALCL) line. HT cells were cultured in RPMI 1640+10% FBS. Raji 4RII cells (clone-11) were a gift from Francisco J. Hernandez-Ilizaliturri and cultured in RPMI 1640+10% FBS. HT and Raji 4RH cell lines are Non-Hodgkin lymphoma cell lines. Jeko-1 cells were cultured in RPMI-1640+10% FBS . Jeko-1 cell lines are mantle cell lymphoma cell lines.
Cells were plated in 100 μL growth media per well into black-sided clear-bottom 96-well plates. Next, 4× concentration working stocks of small molecule inhibitor and antibody drug conjugate were prepared, and then titrated as 2-fold serial dilutions producing 10-point dose curves. For the single drug conditions, 50 μL small molecule inhibitor or ADC or free auristatin was added to each well in quadruplicate with 50 μL of media producing a final volume of 200 μL per well. For the combination conditions, 50 μL small molecule inhibitor and 50 μL ADC or free auristatin dilution were added to the cells (overlaying the dose titrations of each drug: high to low) in quadruplicate producing a final volume of 200 μ, per well. Treated cells were incubated 96 hours at 37° C., 5% CO2. Cytotoxicity was measured by incubating with 100 μL Cell Titer Glo (Promega) solution for 1 hour, and then luminescence was measured on a Fusion HT plate reader (Perkin Elmer). Data was processed with Excel (Microsoft) and GraphPad (Prism) to produce dose response curves and calculate the fraction affected (f a) at each dose concentration. Then CalcuSyn (Biosoft) software was used to determine synergism, additivity, or antagonism for each drug combination using the median-effect equation of Chou-Talalay: D=Dm[fa/(1−fa)]^1/m Median-effect equation
(D) is the dose of the drug. (Dm) is the median-effect dose signifying the potency. This is determined by the x-intercept of the median-effect plot. (fa) is the fraction affected by the dose. (fu) is the fraction unaffected, (1−fa). (m) is an exponent signifying the sigmoidicity (shape) of the dose-effect curve. It is determined by the slope of the median-effect plot. The linear correlation coefficient “r” should be greater than or equal to 0.90. The drug concentration units are arbitrary.
Combination index (CI) values <0.9 indicate synergism, CI values 0.9-1.1 indicate additivity, and CI values >1.1 indicate antagonism.
Each combination study was repeated on separate days a total of n=3 times unless otherwise noted, and the mean combination index value reported with standard error of the mean (sem).

[2] = system: Caki-1 cells; assay: In vitro combination cytotoxicity (Cell Titer Glo, Chou-Talalay CI), Caki-1; format: cell-based; settings: Caki-1 cell line; FIG. 3
Method: as §1
(§2) Cells were plated in 100 μL growth media per well into black-sided clear-bottom 96-well plates. […] Cytotoxicity was measured by incubating with 100 μL Cell Titer Glo (Promega) solution for 1 hour, and then luminescence was measured on a Fusion HT plate reader (Perkin Elmer). […]
(§3) (D) is the dose of the drug. […] This is determined by the x-intercept of the median-effect plot. […] It is determined by the slope of the median-effect plot. […]

[3] = system: Caki-2 cells; assay: In vitro combination cytotoxicity (Cell Titer Glo, Chou-Talalay CI), Caki-2; format: cell-based; settings: Caki-2 cell line; single drug
Method: as §1, §2, §3

[4] = system: L428 cells; assay: In vivo combination of cAC10-vcE and temsirolimus, B-like Hodgkin lymphoma murine xenograft; parameters: species or system NOD-SCID-gamma mice; settings: for Median Days to Triple Volume: L428 xenograft, cAC10-vcE 1.0 mg/kg q4dx4 ip, temsirolimus 20 mg/kg ip
Method: To test combination treatments in B-like Hodgkin lymphoma in vivo, a murine xenograft model was used. L428 cells were implanted into NOD-SCID-gamma mice (The Jackson Laboratory) to generate tumors. Tumors were grown to an average of 90 mm^3, then sorted into groups of 7 mice. Mice were not treated, treated with temsirolimus (20 mg/kg), treated with cAC10-vcE (1.0 mg/kg), or treated with cAC10-vcE and temsirolimus. The cAC10-vcE was administered q4dx4 ip. The temsirolimus was administered q4dx4 ip or q3dx6 ip. In the combination treatment, the cAC10-vcE was dosed 2 days before temsirolimus. Tumor volume was measured periodically for 120 days post initial dosing. Data was plotted as a Kaplan-Meier plot showing rate of tumor tripling. P-values were calculated using the Log-rank test to confirm statistical significance.

[5] = system: L428 cells; assay: In vivo combination of cAC10-vcE and everolimus, B-like Hodgkin lymphoma murine xenograft; parameters: species or system NOD-SCID-gamma mice; settings: for complete responses: L428 xenograft, day 61, groups of 10 mice, cAC10-vcE 1.0 mg/kg q4dx4 ip, everolimus 15 mg/kg po
Method: To test combination treatments in B-like Hodgkin lymphoma in vivo, a murine xenograft model was used. L428 cells were implanted into NOD-SCID-gamma mice (The Jackson Laboratory) to generate tumors. Tumors were grown to an average of 90 mm 3 , then sorted into groups of 10 mice. Mice were not treated, treated with everolimus (15 mg/kg), treated with cAC10 (1 mg/kg), treated with cAC10-vcE (1.0 mg/kg), treated with cAC10 and everolimus, or treated with cAC10-vcE and everolimus. The cAC10-vcE and cAC10 was administered q4dx4 ip. The everolimus was administered ql dx14 po.

[6] = system: HT cells; assay: In vitro combination cytotoxicity (Cell Titer Glo, Chou-Talalay CI), HT; format: cell-based; settings: HT cell line
Method: as §1, §2, §3

CC[C@H](C)[C@@H]([C@@H](CC(=O)N1CCC[C@H]1[C@H](OC)[C@@H](C)C(=O)N[C@H](C)[C@@H](O)c1ccccc1)OC)N(C)C(=O)[C@@H](NC(=O)[C@@H](NC)C(C)C)C(C)C [MMAE, monomethyl auristatin E] (H-[NMeV]V[Dil][Dolaproine]-X1)
interaction with the rapalogs temsirolimus, sirolimus, and everolimus [1]: synergistic | interaction with the rapalogs temsirolimus and sirolimus [2]: synergistic

CO[C@H]1C[C@@H]2CC[C@@H](C)[C@@](O)(O2)C(=O)C(=O)N2CCCC[C@H]2C(=O)O[C@H]([C@H](C)C[C@@H]2CC[C@@H](O)[C@H](OC)C2)CC(=O)[C@H](C)/C=C(\C)[C@@H](O)[C@@H](OC)C(=O)[C@H](C)C[C@H](C)/C=C/C=C/C=C/1C [sirolimus, rapamycin]
cytotoxicity of the drug alone [3]: not potent cytotoxic drugs except in the Caki-2 cell line grown in media with low FBS | cytotoxicity of the drug alone [1]: not potent cytotoxic drugs | effect on the cytotoxicity of h1F6-mcF [1]: potentiate the cytotoxicity of h1F6-mcF

CO[C@H]1C[C@@H]2CC[C@@H](C)[C@@](O)(O2)C(=O)C(=O)N2CCCC[C@H]2C(=O)O[C@H]([C@H](C)C[C@@H]2CC[C@@H](OC(=O)C(C)(CO)CO)[C@H](OC)C2)CC(=O)[C@H](C)/C=C(\C)[C@@H](O)[C@@H](OC)C(=O)[C@H](C)C[C@H](C)/C=C/C=C/C=C/1C [temsirolimus]
Median Days to Triple Volume [4]: 56 days | cytotoxicity of the drug alone [3]: not potent cytotoxic drugs except in the Caki-2 cell line grown in media with low FBS | cytotoxicity of the drug alone [1]: not potent cytotoxic drugs | effect on the cytotoxicity of h1F6-mcF [1]: potentiate the cytotoxicity of h1F6-mcF

CO[C@H]1C[C@@H]2CC[C@@H](C)[C@@](O)(O2)C(=O)C(=O)N2CCCC[C@H]2C(=O)O[C@H]([C@H](C)C[C@@H]2CC[C@@H](OCCO)[C@H](OC)C2)CC(=O)[C@H](C)/C=C(\C)[C@@H](O)[C@@H](OC)C(=O)[C@H](C)C[C@H](C)/C=C/C=C/C=C/1C [everolimus]
complete responses [5]: no complete responses

cAC10-vcE: vc-MMAE (mc-vc-MMAE) antibody drug conjugate wherein the antibody is a chimeric AC10 (anti-CD30) antibody
interaction with everolimus in delaying tumor growth in vivo ([5]; B-like HL murine xenograft model, FIG. 6): synergistic | complete responses [5]: no complete responses | interaction with temsirolimus in delaying tumor growth in vivo ([4]; B-like HL murine xenograft model, FIG. 5): synergistic | Median Days to Triple Volume [4]: 52 days

B1: h1F6-mcF (conjugate, chains of the INN, looked up)
VH: QVQLVQSGAEVKKPGASVKVSCKASGYTFTNYGMNWVRQAPGQGLKWMGWINTYTGEPTYADAFKGRVTMTRDTSISTAYMELSRLRSDDTAVYYCARDYGDYGMDYWGQGTTVTVSS
VL: DIVMTQSPDSLAVSLGERATINCRASKSVSTSGYSFMHWYQQKPGQPPKLLIYLASNLESGVPDRFSGSGSGTDFTLTISSLQAEDVAVYYCQHSREVPWTFGQGTKVEIK
modifications: maleimidocaproyl-MMAF (mcF) drug conjugate
interaction with the rapalogs temsirolimus, sirolimus, and everolimus [1]: synergistic | interaction with the rapalogs temsirolimus and sirolimus [2]: synergistic

B2: hBU12-mcF (conjugate, chains of the INN, looked up)
VH: QVQLQESGPGLVKPSQTLSLTCTVSGGSISTSGMGVGWIRQHPGKGLEWIGHIWWDDDKRYNPALKSRVTISVDTSKNQFSLKLSSVTAADTAVYYCARMELWSYYFDYWGQGTLVTVSS
VL: EIVLTQSPATLSLSPGERATLSCSASSSVSYMHWYQQKPGQAPRLLIYDTSKLASGIPARFSGSGSGTDFTLTISSLEPEDVAVYYCFQGSVYPFTFGQGTKLEIK
modifications: maleimidocaproyl-MMAF (mcF) drug conjugate
interaction with the rapalogs temsirolimus and sirolimus [6]: synergistic
